Paper PMC13376213, “Systematic discovery of motif-based interactions of the auxiliary domains of USP family deubiquitinases” (Nature Communications, 2026)
Where two headings read alike, the source gives them in different places. Ends that are not written are not given here.

Legend:
USP20 zf-UBP domain = molecular target: T1, USP20 zf-UBP domain (Homo sapiens, UniProt Q9Y2K6); assay: FP-monitored affinity measurements, USP20 zf-UBP; type: binding
T1 construct: USP20_UBP; Q9Y2K6; zf-UBP; 99; 6xHis-GST (N, cleaved yes); made in house; host or cells: Escherichia coli BL21-Gold (DE3)
Method: (§3) The measurements were performed at room temperature in a non-binding black half area 96-well plate (Corning) with a total volume of 50 μL per well. […] All measurements were performed in three technical replicates. […] The saturation curves were fitted to the quadratic equation, and the displacement curves were fitted to a sigmoidal dose-response equation as described previously[68].

USP33 zf-UBP domain = molecular target: T2, USP33 zf-UBP domain (Homo sapiens, UniProt Q8TEY7); assay: FP-monitored affinity measurements, USP33 zf-UBP; type: binding; details: read-out: KD, USP33 zf-UBP
T2 construct: USP33_UBP; Q8TEY7; zf-UBP; 36; 130; 6xHis-GST (N, cleaved yes); made in house; host or cells: Escherichia coli BL21-Gold (DE3)
T2 sequence (Q8TEY7 with tags, fused parts or gaps): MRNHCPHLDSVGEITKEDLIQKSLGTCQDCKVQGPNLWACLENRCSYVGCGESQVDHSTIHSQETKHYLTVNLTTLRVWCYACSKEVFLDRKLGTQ
Method: as §3

USP20 DUSP2 domain [1] = molecular target: T3, USP20 DUSP2 domain (Homo sapiens, UniProt Q9Y2K6); assay: Peptide SPOT array, USP20 DUSP2; type: binding; details: for Average: peptide SPOT array intensity minus background, mean of 2 replicas; for Average / Normalize to peptide with higher intensity %: sheet S5A; for Normalize to higher intensity (%) / Normalize to peptide with higher intensity %: peptide SPOT array; for Normalize to higher intensity (%): USP20 DUSP2, average normalised to the highest intensity (ARNTL2 = 100); for Normalize to peptide with higher intensity %: average normalized to the peptide with highest intensity (ARNTL2 = 100);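 as to all read-outs here: GST-tagged domain probed overnight at 4 °C on peptides made on cellulose membranes, bound protein detected via HRP-coupled anti-GST antibody, spot intensity from image analysis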
T3 construct: USP20_DUSP2; Q9Y2K6; DUSP2; 776; 894; 6xHis-GST (N, cleaved yes); made in house; host or cells: Escherichia coli BL21-Gold (DE3)
Method: (§4) Peptides were synthesized on cellulose membranes with standard Fluoroenylmethylox-ycarbonyl (Fmoc) chemistry using a Multipep automated synthesizer at INTAVIS (Tübingen, Germany) or ordered from JPT (PepSpots). The membranes were activated with methanol for 5 min and washed three times for 5 min with TBST (50 mM Tris, 137 mM NaCl, 2.7 mM KCl, pH 8.0, 0.05% Tween-20). The membranes were incubated with blocking buffer (5% skim milk powder in TBST) for 2 h at room temperature while shaking. The membranes were incubated with the GST-tagged protein diluted at the desired concentration in blocking buffer and incubated overnight at 4 °C while shaking. The membrane was rinsed 3 times with TBST and incubated with HRP-conjugated anti-GST antibody (Cytiva, RPN1236; 1:3000 dilution) in blocking buffer for 1 h at 4 °C while shaking. […] The images were analyzed in Fiji (ImageJ2 version 2.9.0).

USP20 DUSP2 domain [2] = molecular target: T3, USP20 DUSP2 domain; assay: FP-monitored affinity measurements, USP20 DUSP2; type: binding
Method: (§1) Proteins were expressed in Escherichia coli (E.coli) BL21-Gold (DE3) bacteria. The cDNAs encoding N-terminal 6-histidine-glutathione S-transferase tagged (6xHis-GST), 6xHis-tagged or GST-tagged protein domains in pETM33, pETM11, pGEX6P1 expression vectors respectively, were obtained from Genescript or kindly provided by MRC-PPU (Suppl. Data 1) The bacteria were transformed with the plasmid and grew at 37 °C in 2YT (5 g/L NaCl, 16 g/L tryptone and 10 g/L yeast extract) supplemented with Kanamycin (30 μg/mL) until reaching an OD600 of 0.7. Protein expression was induced with 0.3 mM isopropyl β-D-1 thiogalactopyranoside (IPTG) for 18 h at 18 °C while shaking. For zinc-finger domains, 50 μM of ZnSO4 was added during expression. The bacterial cultures were pelleted for 15 minutes at 4000 x g at 4 °C and stored at −20 °C until purification. The pellets were resuspended in lysis buffer (1× phosphate-buffered saline (PBS), 0.5 % Triton-X, 5 mM MgCl2, 10 μg/mL lysozyme, cOmplete^TM EDTA-free protease inhibitor cocktail (Roche), 10 μg/mL DNAseI) and incubated for 1 h shaking at 4 °C. […] The supernatant was incubated with glutathione (GSH) Sepharose (Cytiva) or Ni2+ Sepharose (Cytiva) for 1 h at 4 °C while shaking. The beads with the bound protein were washed with 1x PBS and eluted with 10 mM reduced glutathione in 50 mM Tris pH 8.0. For fluorescence polarization experiments, the proteins were not eluted from the beads, and the 6xHis-GST tag was cleaved overnight on GSH Sepharose beads at 4 °C while shaking with PreScission Protease in cleavage buffer (50 mM Tris pH 7.5, 150 mM NaCl, 1 mM DTT). The sample containing the cleaved domain was separated from the tag and protease and buffer-exchanged to 50 mM sodium phosphate buffer pH 7.4 with 1 mM DTT using a PD-10 desalting column (Cytiva). The purity and size of the proteins were analyzed by SDS-PAGE electrophoresis.
(§2) The measurements were performed at room temperature in a non-binding black half area 96-well plate (Corning) with a total volume of 50 μL per well. Peptides were obtained from GeneCust (France) with >95% purity. FITC-labeled peptides (N-terminally FITC-labeled without spacer and C-terminally amidated) were dissolved in dimethyl sulfoxide (DMSO), and unlabeled peptides (N-terminally acetylated and C-terminally amidated) were dissolved in 50 mM phosphate buffer pH 7.4. Saturation measurements were performed using a serial dilution of the protein domains in phosphate buffer (25 μL) and the addition of 10 nM FITC-labeled peptide (in phosphate buffer supplemented with 2 mM DTT) (25 μL). […] All measurements were performed in three technical replicates. The data were analyzed using GraphPad Prism version 9.2.0 for MacOS (GraphPad Software, San Diego, California USA, www.graphpad.com). The saturation curves were fitted to the quadratic equation, and the displacement curves were fitted to a sigmoidal dose-response equation as described previously.

USP33 DUSP2 domain [3] = molecular target: T4, USP33 DUSP2 domain (Homo sapiens, UniProt Q8TEY7); assay: FP-monitored affinity measurements, USP33 DUSP2; type: binding
T4 construct: USP33_DUSP2; Q8TEY7; DUSP2; 806; 921; 6xHis-GST (N, cleaved yes); made in house; host or cells: Escherichia coli BL21-Gold (DE3)
T4 sequence (Q8TEY7 with tags, fused parts or gaps): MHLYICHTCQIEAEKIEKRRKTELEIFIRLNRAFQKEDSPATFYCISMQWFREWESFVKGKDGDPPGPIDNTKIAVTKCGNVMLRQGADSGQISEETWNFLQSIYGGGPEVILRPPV
Method: as §1, §2

USP33 DUSP2 domain [4] = molecular target: T4, USP33 DUSP2 domain; assay: Peptide SPOT array, USP33 DUSP2; type: binding; details: average normalised to the highest intensity (CCDC88B = 100)
Method: as §4

FLAG-USP33 = assay: IP-MS of FLAG-USP33 and variants vs empty vector; type: cell-based, human; details: IP-MS
Method: For transfection, 1x10^6 HEK293 cells were seeded in 10 cm dishes with DMEM, 10% FBS, 1% L-G (without antibiotic) medium, incubated at 37 °C, with 5 % CO2 for 24 h. Cells were transfected with a transfection mix containing […] of Opti-MEM (Thermo Fisher Scientific), 20 μL of PEI stock (1 mg/mL) and […] of the desired cDNA. For co-transfection, 2.5 μg of DNA of each plasmid was used. The mix was vortexed for 15 s and incubated at room temperature for 15–20 min. The transfection mix was added to the dish and gently mixed. Plates were incubated at 37 °C for 36–48 h before harvesting. For USP33 constructs, 5 μM Bortezomib (proteasome inhibitor) was added 4 hours before harvesting the cells.
FLAG fusion proteins were immunoprecipitated from HEK293 cells transfected with plasmids encoding the protein of interest using the anti-FLAG M2 affinity gel from Sigma-Aldrich. Cell pellets were lysed with 100–200 μL/per dish lysis buffer (Pierce RIPA buffer, 1X protease inhibitor (Roche), 50 unit/μL of Benzonase Nuclease) rotating at 4 °C for 30–45 min. […] The cell lysate was clarified by centrifugation at 17,000 x g, at 4 °C for 12 min, and the supernatant was transferred to a clean, pre-chilled low-binding Eppendorf tube. […] The IP samples were centrifuged at 6500 x g at 4 °C for 30 s. The supernatant containing the unbound proteins was transferred to a clean tube. The resin was washed three times with 500 μL of TBS, centrifuged at 6500 x g at 4 °C for 30 s. The bound FLAG fusion protein was eluted with 100 μL of 150 ng/μL 3X FLAG peptide (Sigma) in TBS and incubated in the cold room for 1 h or overnight. The tube was centrifuged at 6500 x g at 4 °C for 30 s; the eluted proteins were transferred to a clean tube. The eluted proteins were prepared for analysis by western blot or Mass Spectrometry.
Immunoprecipitation (IP) was carried out as described above; four technical replicates of each IP condition were performed, and the empty vector was used as a negative control. The eluted protein was processed following the Strap-micro protocol (Protifi). The IP elution containing 1–100 μg protein was 1:1 mixed with 2X lysis buffer (10% SDS, 100 mM TEAB pH 8.5). […] Samples were vortexed, mixed with 165 μL of 100 mM TEAB in 90% methanol, and passed through an S-Trap micro column at 4000 g for 30 s to trap the proteins. The column was washed with 150 μL of 100 mM TEAB in 90% methanol (at 4,000 x g for 30 seconds) three times. The S-Trap column was centrifuged again and transferred to a clean 2 mL tube for digestion with 20 μL of digestion buffer (1 μg trypsin per 10 μg sample in 50 mM TEAB), at 37 °C overnight in a thermomixer without shaking. The digested peptides were eluted with […] of 50 mM TEAB in water, […] of 0.2 % formic acid in water, and […] of 50 % acetonitrile in water, centrifuging at 4000 x g for 1 min each time. The three elutions were pooled in a low-binding tube, placed on dry ice until frozen, dried in a SpeedVac vacuum (Thermo Scientific), and proceeded with the LCMS analysis.
Eluted peptides were resuspended in water supplemented with 0.015% dodecyl maltoside and 0.1% formic acid and were injected on a Vanquish Neo UHPLC System operating in trap and elute mode coupled to an Orbitrap Astral Mass Spectrometer (Thermo Fisher Scientific). […] Eluted peptides were analyzed using data-independent acquisition mode on the mass spectrometer.
Peptides were searched against the Uniprot Swissprot Human database (released on 02/01/2023) supplemented with the USP20 and USP33 mutants using DiaNN (v1.9.0)[62] operating in library-free mode. Data filtering and statistical analysis were carried out in Python (v3.9.0) using the packages pandas, numpy, sklearn, scipy, rpy2, Plotnine, and Plotly and R (v4.4.3) using the package limma.
Protein groups identified with a single peptide or quantified in fewer than three replicates in at least 1 condition were filtered out. […]

[5] = USP20_DUSP2, FP displacement by unlabelled peptide, read-out: KD
[6] = USP33_DUSP2, FP displacement by unlabelled peptide, read-out: KD
[7] = FLAG-USP33-ΔDUSP2 vs EV, comparison bh_2 Sample_Limma_ImpMedInt_USP33_DUSP2_domain/EV
[8] = FLAG-USP33-ΔUBP vs EV, comparison bh_2 Sample_Limma_ImpMedInt_USP33_UBP_domain/EV

T3 sequence (Q9Y2K6 with tags, fused parts or gaps): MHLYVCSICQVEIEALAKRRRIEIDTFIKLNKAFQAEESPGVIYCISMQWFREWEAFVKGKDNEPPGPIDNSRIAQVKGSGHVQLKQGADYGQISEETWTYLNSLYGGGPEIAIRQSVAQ
T1 sequence (Q9Y2K6 4-99): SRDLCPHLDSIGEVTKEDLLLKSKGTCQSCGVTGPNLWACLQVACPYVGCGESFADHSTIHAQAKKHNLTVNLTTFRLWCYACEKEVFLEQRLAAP

| Substance | Average (USP20 DUSP2 domain [1]) | Normalize to higher intensity (%) (USP20 DUSP2 domain [1]) | Normalize to peptide with higher intensity % (USP20 DUSP2 domain [1]) [%] | Kd (USP20 DUSP2 domain [2]; [5]) [µM] | Kd (USP33 DUSP2 domain [3]; [6]) [µM] | Normalize to higher intensity (%) (USP33 DUSP2 domain [4]) | further results |
| --- | --- | --- | --- | --- | --- | --- | --- |
| EKVKRRLDLDID [CCP110_582-593] | – | – | – | – | – | – | Kd (USP20 zf-UBP domain; read-out: KD, USP20 zf-UBP): > 500 µM; Kd (USP33 zf-UBP domain): > 250 µM |
| IPMDDDFQLRSFDQLS [HIF1A] | 35.4167 | 19.83 | 19.8322 | 18.7 | 1.5 | 69.9644 | – |
| NBAS | – | – | – | – | – | – | log2_FC (FLAG-USP33; [7]): 2.843; log2_FC (FLAG-USP33; [8]): 2.886; log2_FC (FLAG-USP33; FLAG-USP33 UBP mutant vs EV, comparison USP33_E86K_D90R/EV, Limma): 2.804 |
| PDVVDDFQLQHRHGPG [MFSD2B] | -6.828 | -3.824 | -3.824 | 44.7 | 0.75 | 51.523 | – |
| PYIPMDGEDFQLSPICPE [HIF2A531-548] | – | – | – | – | – | – | Kd (USP20 DUSP2 domain [2]; competitive FP: unlabeled peptide (N-acetylated, C-amidated) against protein with 10 nM FITC-labeled peptide, 50 mM phosphate pH 7.4, room temperature, technical triplicate, read-out: KD, USP20 DUSP2): > 200 µM; Kd (USP33 DUSP2 domain [3]; competitive FP: unlabeled peptide (N-acetylated, C-amidated) against protein with 10 nM FITC-labeled peptide, 50 mM phosphate pH 7.4, room temperature, technical triplicate, read-out: KD, USP33 DUSP2): > 1000 µM |
| QLEEELFQLRQGPAGL [CCDC88B] | 62.4217 | 34.95 | 34.9541 | 22.4 | 40.1 | 100 | – |
| VWA8 | – | – | – | – | – | – | log2_FC (FLAG-USP33; [7]): 2.1493; log2_FC (FLAG-USP33; [8]): 2.322 |
| YAQSKTQLEVRPV [ROBO1] | – | – | – | – | – | – | Kd (USP20 zf-UBP domain; USP20_UBP, FP displacement by unlabelled peptide, read-out: KD): ~81.6 µM |
